Experimental findings from US6358934B1, “Anti-retroviral activity of 2′,3′-dideoxy-3′-fluoronucleosides” (Medivir AB, priority 1986, dated 2002) are described below.

Each structure is given as a SMILES string.

A word on the inhibition: it is the drop in the measured response relative to a control, in per cent.

Test [1] deals with T1, reverse transcriptase of HIV (HTLV-III/LAV) (Human immunodeficiency virus type 1 group M subtype B, UniProt P03366).
T1 construct: reverse transcriptase from HIV (HTLV-III/LAV)
Nature of the test: Cell-free assay of HIV reverse transcriptase. Format: biochemical. The method, then:
A cell-free assay system has been used to investigate the inhibition of 3′-deoxy-3′-fluorothymidine on reverse transcriptase of HIV (HTLV-III/LAV). The assay was performed as described by Vrang et Öberg, Antimicrob. Agents Chemother. 29, 867-872 (1986). With this assay the 3′-deoxy-3′-fluoro-thymidine-5′-triphosphate has been tested, instead of the prodrug 3′-deoxy-3′-fluorothymidine to evaluate its potential against reverse transcriptase from HIV (HTLV-III/LAV).

Test [2] addresses DNA polymerase of hepatitis B virus (HBV) (Hepatitis B virus genotype D subtype ayw, UniProt P03156). Nature of the test: biochemical. The note with it: 3 hours incubation at 37° C., cpm vs water control. From the text: Since hepatitis B virus cannot be grown in cell cultures, a cell-free assay system of the hepatitis B virus DNA polymerase has been used to investigate the effect of 3′-deoxy-3′-fluorothymidine. 3′-Deoxy-3′-fluorothymidine in cells is transformed to 3′-deoxy-3′-fluorothymidine-5′-triphosphate.
The HBV associated DNA polymerase activity can be measured in vitro (Kaplan et al., J. Virol., 12, 995-1005, 1973). A slight modification of this method has been used to test the substance for inhibition of this DNA polymerase activity. (Nordenfelt E., Öberg, B., Helgstrand E. and Miller E. Acta path., Microbiol. Scand. Sect B, 88:169-175, 1980). With this assay the 3′-deoxy-3′-fluorothymidine-5′-triphosphate has been tested, instead of the prodrug 3′-deoxy-3′-fluorothymidine, to evaluate its potential against hepatitis B virus DNA polymerase.
3′-deoxy-3′-fluorothymidine-5′-triphosphate was added to the final concentrations of 0.01 μM, 0.05 μM, 0.1 μM, 0.5 μM and 1.0 μM in the reaction mixture. The inhibition is calculated after 3 hours incubation at 37° C. and based on cpm compared to control with added water.

The subject of test [3] is HIV (HTLV-III/LAV) in H9 cells. The experiment in a line: Expressed reverse transcriptase activity in HIV-infected H9 cell cultures. Format: cell-based.
Method: The cells were then pelleted and dispersed in 2.5 ml phosphate buffered saline (PBS) including 2 μg/ml Polybrene. After incubation for 30 min the cells were pelleted and infected with HIV. After an adsorption period of 1 hour the cells were pelleted and washed once with 2.5 ml PBS. […] Samples for reverse transcriptase activity tests were taken as indicated.
1.3 ml samples from the supernatant of each culture were centrifuged at 18 000 rpm in a 55-34 rotor for 1.5 hours and the virus pellet resuspended in 100 μl buffer containing 50 mM Tris-HCl, pH 7.5; 35 mM KCl; 4 mM DTT; 1 mM EDTA; 1.3% Triton X-100. 50 μl samples were taken to the reverse transcriptase activity tests and analyzed in a 100 μl reaction mixture containing 75 mM Tris-HCl, pH 8.0; 60 mM KCl; 6.2 mM MgCl2; 6 mM DTT; 0.5 mM EDTA; 0.65% Triton X-100, 100 μg/ml BSA; 25 μCi/ml ^3H-dTTP (spec activity 80 Ci/mmol); 2.5 μg/ml (dT)12-18; and 2.0 μg/ml (rA)n. Incubation was for 1 hour at 37° C. and the TCA-insoluble product precipitated onto Whatman GF/A filter papers, washed and dried, and counted in a liquid scintillation counter.
The amounts of reverse transcriptase molecules and their total activity expressed in HIV-infected cell cultures is correlated to the amount of HIV particles present. The addition of an effective antiviral agent which inhibits the production of new HIV particles, also decreases the amount of reverse transcriptase molecules and is expressed as a decreased total activity.

Sequence of DNA polymerase of hepatitis B virus (HBV) (P03156 whole entry): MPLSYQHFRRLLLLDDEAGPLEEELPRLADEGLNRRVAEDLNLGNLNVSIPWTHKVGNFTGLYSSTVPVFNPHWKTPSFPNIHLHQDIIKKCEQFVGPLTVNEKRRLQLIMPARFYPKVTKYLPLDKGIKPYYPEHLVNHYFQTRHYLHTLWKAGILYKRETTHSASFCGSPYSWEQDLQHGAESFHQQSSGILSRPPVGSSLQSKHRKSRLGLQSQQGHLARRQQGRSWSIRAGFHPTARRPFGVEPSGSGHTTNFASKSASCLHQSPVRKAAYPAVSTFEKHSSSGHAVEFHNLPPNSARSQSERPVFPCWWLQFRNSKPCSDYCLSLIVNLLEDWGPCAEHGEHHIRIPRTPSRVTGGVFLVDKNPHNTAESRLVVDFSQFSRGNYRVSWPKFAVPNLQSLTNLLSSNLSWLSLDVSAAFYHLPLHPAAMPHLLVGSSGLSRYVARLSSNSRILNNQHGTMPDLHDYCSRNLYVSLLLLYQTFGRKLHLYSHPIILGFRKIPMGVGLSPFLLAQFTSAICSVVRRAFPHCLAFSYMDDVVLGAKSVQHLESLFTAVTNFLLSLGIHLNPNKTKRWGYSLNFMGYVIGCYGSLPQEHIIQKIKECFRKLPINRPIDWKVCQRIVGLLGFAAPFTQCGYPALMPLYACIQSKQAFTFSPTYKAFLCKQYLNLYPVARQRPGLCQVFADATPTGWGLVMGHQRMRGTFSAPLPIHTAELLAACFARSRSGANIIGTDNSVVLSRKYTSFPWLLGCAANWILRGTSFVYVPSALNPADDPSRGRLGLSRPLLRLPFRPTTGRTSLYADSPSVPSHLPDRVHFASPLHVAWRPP

Regarding `Cc1cn([C@H]2C[C@H](F)[C@@H](COP(=O)(O)OP(=O)(O)OP(=O)(O)O)O2)c(=O)[nH]c1=O` [3′-deoxy-3′-fluorothymidine-5′-triphosphate], the results for the “% inhibition of HIV (HTLV-III/LAV) reverse transcriptase” value in test [1] (0.01 μM), in test [1] (0.05 μM) and in test [1] (0.1 μM) were 12%, 27% and 38%, respectively. Besides, in test [2] (0.01 μM), the inhibition at 0.01 µM amounted to 17%. Besides, in test [2] (0.05 μM), the inhibition at 0.05 µM worked out at 17%. Testing at 0.1 µM in test [2] (0.1 μM) gave an inhibition of 39%. The compound also yielded an inhibition at 0.5 µM in test [2] (0.5 μM) of 79%.

Turning to `Cc1cn([C@H]2C[C@H](F)[C@@H](CO)O2)c(=O)[nH]c1=O` [3′-deoxy-3′-fluorothymidine], the Reverse transcriptase activity in test [3] (0.01 μM, 4 days post-infection, 0 μM control 0.9) turned out to be 0.5 cpm × 10^−3; in test [3] (0.01 μM, 8 days post-infection, 0 μM control 19), 1.3 cpm × 10^−3; in test [3] (0.01 μM, 11 days post-infection, 0 μM control 17) it was 1.9 cpm × 10^−3; in test [3] (0.01 μM, 15 days post-infection, 0 μM control 11), 2.7 cpm × 10^−3; in test [3] (0.01 μM, 18 days post-infection, 0 μM control 27) it was 28 cpm × 10^−3; in test [3] (0.01 μM, 22 days post-infection, 0 μM control 46) it was 52 cpm × 10^−3. Further, the Reverse transcriptase activity in test [3] (0.01 μM, 29 days post-infection, 0 μM control 16) is recorded as 21 cpm × 10^−3; in test [3] (0.05 μM, 4 days post-infection, 0 μM control 0.9), 0.3 cpm × 10^−3; in test [3] (0.05 μM, 8 days post-infection, 0 μM control 19), 0.3 cpm × 10^−3; in test [3] (0.05 μM, 11 days post-infection, 0 μM control 17), 0.4 cpm × 10^−3; in test [3] (0.05 μM, 15 days post-infection, 0 μM control 11), 0.6 cpm × 10^−3; in test [3] (0.05 μM, 18 days post-infection, 0 μM control 27), 0.5 cpm × 10^−3. For the same compound, the Reverse transcriptase activity amounted to 1.6 cpm × 10^−3 in test [3] (0.05 μM, 22 days post-infection, 0 μM control 46); 3.1 cpm × 10^−3 in test [3] (0.05 μM, 29 days post-infection, 0 μM control 16); 0.2 cpm × 10^−3 in test [3] (0.1 μM, 4 days post-infection, 0 μM control 0.9); 0.2 cpm × 10^−3 in test [3] (0.1 μM, 8 days post-infection, 0 μM control 19); 0.5 cpm × 10^−3 in test [3] (0.1 μM, 11 days post-infection, 0 μM control 17); 0.4 cpm × 10^−3 in test [3] (0.1 μM, 15 days post-infection, 0 μM control 11). Besides, the Reverse transcriptase activity in test [3] (0.1 μM, 18 days post-infection, 0 μM control 27) was found to be 0.4 cpm × 10^−3; in test [3] (0.1 μM, 22 days post-infection, 0 μM control 46), 0.2 cpm × 10^−3; in test [3] (0.1 μM, 29 days post-infection, 0 μM control 16) it was 0.2 cpm × 10^−3; in test [3] (0.5 μM, 4 days post-infection, 0 μM control 0.9) it was 0.3 cpm × 10^−3; in test [3] (0.5 μM, 8 days post-infection, 0 μM control 19), 0.3 cpm × 10^−3; in test [3] (0.5 μM, 11 days post-infection, 0 μM control 17), 0.5 cpm × 10^−3. Also, the Reverse transcriptase activity in test [3] (0.5 μM, 15 days post-infection, 0 μM control 11) is listed as 0.3 cpm × 10^−3; in test [3] (0.5 μM, 18 days post-infection, 0 μM control 27), 0.6 cpm × 10^−3; in test [3] (0.5 μM, 22 days post-infection, 0 μM control 46), 0.1 cpm × 10^−3; in test [3] (0.5 μM, 29 days post-infection, 0 μM control 16), 0.2 cpm × 10^−3; in test [3] (1.0 μM, 4 days post-infection, 0 μM control 0.9), 0.3 cpm × 10^−3; in test [3] (1.0 μM, 8 days post-infection, 0 μM control 19), 0.2 cpm × 10^−3. In addition, the Reverse transcriptase activity in test [3] (1.0 μM, 11 days post-infection, 0 μM control 17) stood at 0.5 cpm × 10^−3; in test [3] (1.0 μM, 15 days post-infection, 0 μM control 11), 0.4 cpm × 10^−3; in test [3] (1.0 μM, 18 days post-infection, 0 μM control 27) it was 0.5 cpm × 10^−3; in test [3] (1.0 μM, 22 days post-infection, 0 μM control 46) it was 0.1 cpm × 10^−3; in test [3] (1.0 μM, 29 days post-infection, 0 μM control 16), 0.2 cpm × 10^−3. In addition, the “effect on reverse transcriptase activity of HIV in infected H9 cells (in words)” value in test [3] (0.01 μM, up to 11 days) is “enzyme activity was not detected”; in test [3] (0.05 μM, up to 22 days), “no significant enzyme activity was detected”; in test [3] (0.1 μM and higher concentrations, during at least 29 days), “completely prevents the enzyme activity”.
